Literature values in patent US5246969A, “Di-propargyl-containing aryl/alkylsulfonyl-terminated alanine amino-diol compounds for treatment of hypertension” (G. D. Searle & Co., priority 1992, dated 1993).
Square brackets hold non-standard residues; d marks the D form. Peptide text beside a SMILES is read from it. * marks the point of attachment. Sta = CC(C)C[C@H](N)[C@@H](O)CC(=O)O; Isovaleryl = CC(C)CC(=O)*

Tested on: hog renin
Details: nephrectomized rats after the injection of hog renin

SMILES: CC(C)CC(=O)N[C@H](C(=O)N[C@H](C(=O)N[C@@H](CC(C)C)[C@@H](O)CC(=O)N[C@@H](C)C(=O)N[C@@H](CC(C)C)[C@@H](O)CC(=O)O)C(C)C)C(C)C [pepstatin] (Isovaleryl-VV[Sta]A[Sta]-OH)
- blood pressure in vivo: reduce blood pressure
